The values that follow come from patent publication US20190375708A1 (VenatoRx Pharmaceuticals, Inc., priority 2018, published 2019).

Data set [1] in a line: In vitro cytotoxicity assay (MTT cell viability) in HepG2 cells. The data set is classed as cell-based, human. The note with it: human. The essentials:
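Parental HepG2 cells in EMEM + 10% FBS were exposed to compounds (8 half-log dilutions, 30 μM to 1.0 nM) for 7 days at 37 °C, 5% CO2. MTT was then added for 3-4 h, formazan dissolved in DMSO and absorbance read at 492 nm; CC50 came from 4-parameter fits against vehicle controls.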

The test system of data set [2] is HBV replication in HepAD38 cells. Put plainly: Anti-HBV replication assay in HepAD38 cells (QPCR of extracellular HBV DNA). The data set is classed as cell-based, HBV (genotype D, serotype ayw). The note with it: Hepatitis B virus, 168 h, 7 days incubation, extracellular HBV DNA by QPCR, read-out: Anti-HBV EC50. The essentials:
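Tet-off HepAD38, 7-day compound exposure ([…], 1 log10 steps, DMSO vehicle), 37 °C. Extracellular HBV DNA by QPCR, copies/mL via standard curve, % inhibition vs vehicle, EC50 by 4-parameter regression. Entecavir as positive control.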

In general, CC50 refers to the concentration that lowers cell viability or growth by half. A lower CC50 goes with greater toxicity to the cells. What is called EC50 is the concentration needed to bring the measured effect to its halfway point. Compound `Cc1cc(NC(=O)c2c(Cl)c(C(=O)C(=O)NCC(C)(C)CO)n3c2CCCC3)cnc1F` [Example 525, 2-chloro-N-(6-fluoro-5-methylpyridin-3-yl)-3-(2-((3-hydroxy-2,2-dimethylpropyl)amino)-2-oxoacetyl)-5,6,7,8-tetrahydroindolizine-1-carboxamide] gave a CC50 at 7 days in data set [1] of more than 30000 nM. Further, the EC50 in data set [2] was more than 1000 nM.

For the compound `Cc1c(C(=O)Nc2ccc(F)c(Cl)c2)c(C)n(C)c1C(=O)C(=O)NC12CCC(O)(CC1)CC2` [Example 357, N-(3-chloro-4-fluorophenyl)-5-(2-((4-hydroxybicyclo[2.2.2]octan-1-yl)amino)-2-oxoacetyl)-1,2,4-trimethyl-1H-pyrrole-3-carboxamide], the CC50 at 7 days in data set [1] was more than 30000 nM. Besides, the EC50 in data set [2] was less than 50 nM.

As to `Cc1c(C(=O)NC2CCC(F)(F)C2)c2n(c1C(=O)C(=O)NC1(CO)CCC1)CCCC2` (stereo not drawn) [Example 744, N-(3,3-difluorocyclopentyl)-3-(2-((1-(hydroxymethyl)cyclobutyl)amino)-2-oxoacetyl)-2-methyl-5,6,7,8-tetrahdyroindolizine-1-carboxamide], the CC50 at 7 days in data set [1] was more than 30000 nM. In data set [2], the 50% effective concentration (EC50) fell in the range of 50 to 499 nM.

Turning to `Cc1cc(NC(=O)c2c(C)c(C(=O)C(=O)NC3(c4cccs4)CCCCC3)n(C)c2C)ccc1F` [Example 633, N-(4-fluoro-3-methylphenyl)-1,2,4-trimethyl-5-(2-oxo-2-((1-(thiophen-2-yl)cyclohexyl)amino)acetyl)-1H-pyrrole-3-carboxamide], the CC50 at 7 days in data set [1] is more than 30000 nM. Further, the concentration for a half-maximal effect (EC50) in data set [2] is less than 50 nM.

In data set [1], `Cc1cc(NC(=O)c2c(C)c(C(=O)C(=O)N[C@H](CO)C(=O)O)n(C)c2C)ccc1F` [Example 33, (2-(4-((4-fluoro-3-methylphenyl)carbamoyl)-1,3,5-trimethyl-1H-pyrrol-2-yl)-2-oxoacetyl)-D-serine] registered a 50% cytotoxic concentration (CC50) at 7 days of more than 30000 nM. The concentration giving a half-maximal response (EC50) in data set [2] is more than 1000 nM.

Compound `O=C(NC1(CO)CC1)C(=O)c1c(Cl)c(C(=O)Nc2ccc(F)c(Cl)c2)c2n1CCC2` [Example 566, 6-chloro-N-(3-chloro-4-fluorophenyl)-5-(2-((1-(hydroxymethyl)cyclopropyl)amino)-2-oxoacetyl)-2,3-dihydro-1H-pyrrolizine-7-carboxamide] gave a CC50 at 7 days in data set [1] of 5000 to 30000 nM. For the same compound, the EC50 in data set [2] is less than 50 nM.

The compound `Cc1noc(C2(NC(=O)C(=O)c3c(C)c(C(=O)Nc4cnc(F)c(C)c4)c(C)n3C)CC2)n1` [Example 160, N-(6-fluoro-5-methylpyridin-3-yl)-1,2,4-trimethyl-5-(2-((1-(3-methyl-1,2,4-oxadiazol-5-yl)cyclopropyl)amino)-2-oxoacetyl)-1H-pyrrole-3-carboxamide] displayed a CC50 at 7 days in data set [1] of more than 30000 nM. In data set [2], the EC50 is 50 to 499 nM.

On to `Cc1cc(NC(=O)c2c(C)c(C(=O)C(=O)NC(C)(C)c3noc(CN(C)C)n3)n(C)c2C)ccc1F` [Example 154, 5-(2-((2-(5-((dimethylamino)methyl)-1,2,4-oxadiazol-3-yl)propan-2-yl)amino)-2-oxoacetyl)-N-(4-fluoro-3-methylphenyl)-1,2,4-trimethyl-1H-pyrrole-3-carboxamide], for which the CC50 at 7 days in data set [1] is more than 30000 nM. The half-maximal effective concentration (EC50) in data set [2] was less than 50 nM.

In data set [1], `CNC(=O)C1(NC(=O)C(=O)c2c(C)c(C(=O)Nc3ccc(F)c(C)c3)c(C)n2C)CC(F)(F)C1` [Example 104, 5-(2-((3,3-difluoro-1-(methylcarbamoyl)cyclobutyl)amino)-2-oxoacetyl)-N-(4-fluoro-3-methylphenyl)-1,2,4-trimethyl-1H-pyrrole-3-carboxamide] came in with a CC50 at 7 days of more than 30000 nM. In data set [2], the EC50 is less than 50 nM.

Take `CCOC(=O)[C@H](CO)NC(=O)C(=O)c1c(C)c(C(=O)Nc2ccc(F)c(C)c2)c(C)n1C` [Example 25, ethyl (2-(4-((4-fluoro-3-methylphenyl)carbamoyl)-1,3,5-trimethyl-1H-pyrrol-2-yl)-2-oxoacetyl)-L-serinate]: the CC50 at 7 days in data set [1] is more than 30000 nM. Moreover, the half-maximal effective concentration (EC50) in data set [2] lay within 50 to 499 nM.

Consider `Cc1cc(NC(=O)c2c(C)c(C(=O)C(=O)NC3CCc4nc(N)sc4C3)n(C)c2C)cnc1F` (stereo in doubt) [Example 138, (S)-5-(2-((2-amino-4,5,6,7-tetrahydrobenzo[d]thiazol-6-yl)amino)-2-oxoacetyl)-N-(6-fluoro-5-methylpyridin-3-yl)-1,2,4-trimethyl-1H-pyrrole-3-carboxamide], for which, in data set [1], the CC50 at 7 days is 500 to 4990 nM. Moreover, the concentration for a half-maximal effect (EC50) in data set [2] is less than 50 nM.

In data set [1], `Cc1cc(NC(=O)c2c(C)c(C(=O)C(=O)N[C@H](C)[C@@H](C)O)n(C)c2C)ccc1F` [Example 199, N-(4-fluoro-3-methylphenyl)-5-(2-(((2R,3R)-3-hydroxybutan-2-yl)amino)-2-oxoacetyl)-1,2,4-trimethyl-1H-pyrrole-3-carboxamide] displayed a CC50 at 7 days of more than 30000 nM. The EC50 in data set [2] was less than 50 nM.

Compound `Cc1cc(NC(=O)c2c(C)c(C(=O)C(=O)NC3(C(F)(F)F)CCOC3)n(C)c2C)ccc1F` (stereo not drawn) [Example 278, N-(4-fluoro-3-methylphenyl)-1,2,4-trimethyl-5-(2-oxo2-((3-(trifluoromethyl)tetrahydrofuran-3-yl)amino)acetyl)-1H-pyrrole-3-carboxamide] had a half-maximal cytotoxic concentration (CC50) at 7 days in data set [1] of more than 30000 nM. For the same compound, in data set [2], the EC50 is less than 50 nM.

In the case of `Cc1cc(NC(=O)c2c(C)c(C(=O)C(=O)N[C@H]3CC[C@H](O)CC3)n(C)c2C)cnc1F` [Example 175, N-(6-fluoro-5-methylpyridin-3-yl)-5-(2-(((1r,4r)-4-hydroxycyclohexyl)amino)-2-oxoacetyl)-1,2,4-trimethyl-1H-pyrrole-3-carboxamide], the CC50 at 7 days in data set [1] is more than 30000 nM. In addition, the EC50 in data set [2] fell in the range of 50 to 499 nM.

Regarding `Cc1cc(NC(=O)c2c(C)c(C(=O)C(=O)NC3(C)CC(F)(F)C3)n(C)c2C)ccc1F` [Example 238, 5-(2-((3,3-difluoro-1-methylcyclobutyl)amino)-2-oxoacetyl)-N-(4-fluoro-3-methylphenyl)-1,2,4-trimethyl-1H-pyrrole-3-carboxamide], the CC50 at 7 days in data set [1] was more than 30000 nM. Besides, the half-maximal effective concentration (EC50) in data set [2] is less than 50 nM.

The compound `Cc1cc(NC(=O)c2c(C)c(C(=O)C(=O)N[C@H]3CNC(=O)C34CC4)n(C)c2C)ccc1F` [Example 710, (R)-N-(4-fluoro-3-methylphenyl)-1,2,4-trimethyl-5-(2-oxo-2-((4-oxo-5-azaspiro[2.4]heptan-7-yl)amino)acetyl)-1H-pyrrole-3-carboxamide] returned a cytotoxic concentration (CC50) at 7 days in data set [1] of more than 30000 nM. In data set [2], the 50% effective concentration (EC50) is less than 50 nM.

Regarding `Cc1cc(NC(=O)c2c(C)c(C(=O)C(=O)NCC(C)(O)c3cccs3)n(C)c2C)ccc1F` (stereo not drawn) [Example 647, N-(4-fluoro-3-methylphenyl)-5-(2-((2-hydroxy-2-(thiophen-2-yl)propyl)amino)-2-oxoacetyl)-1,2,4-trimethyl-1H-pyrrole-3-carboxamide], the 50% cytotoxic concentration (CC50) at 7 days in data set [1] was more than 30000 nM. Moreover, the EC50 in data set [2] was less than 50 nM.

Turning to `CCn1c(C)c(C(=O)Nc2ccc(F)c(C)c2)c(C)c1C(=O)C(=O)NC(C)(C)C(N)=O` [Example 99, 5-(2-((1-amino-2-methyl-1-oxopropan-2-yl)amino)-2-oxoacetyl)-1-ethyl-N-(4-fluoro-3-methylphenyl)-2,4-dimethyl-1H-pyrrole-3-carboxamide], the half-maximal cytotoxic concentration (CC50) at 7 days in data set [1] is more than 30000 nM. Besides, in data set [2], the 50% effective concentration (EC50) fell in the range of 50 to 499 nM.

In data set [1], `CC(C)(C)NC(=O)C(=O)c1cc(C(=O)Nc2ccc(F)c(C#N)c2)c2n1CCCC2` [Example 392, 3-(2-(tert-butylamino)-2-oxoacetyl)-N-(3-cyano-4-fluorophenyl)-5,6,7,8-tetrahydroindolizine-1-carboxamide] yielded a CC50 at 7 days of 5000 to 30000 nM. In addition, in data set [2], the EC50 is more than 1000 nM.

In turn, `Cc1cc(NC(=O)c2c(C)c(C(=O)C(=O)NC3(c4noc(C(F)F)n4)CCC3)n(C)c2C)cnc1F` [Example 159, 5-(2-((1-(5-(difluoromethyl)-1,2,4-oxadiazol-3-yl)cyclobutyl)amino)-2-oxoacetyl)-N-(6-fluoro-5-methylpyridin-3-yl)-1,2,4-trimethyl-1H-pyrrole-3-carboxamide] yielded a cytotoxic concentration (CC50) at 7 days in data set [1] of more than 30000 nM. In addition, the 50% effective concentration (EC50) in data set [2] was less than 50 nM.

`Cc1cc(NC(=O)c2cc(C(=O)C(=O)N3CCc4nc(N)sc4C3)n3c2CCCC3)ccc1F` [Example 421, 3-(2-(2-amino-6,7-dihydrothiazolo[5,4-c]pyridin-5(4H)-yl)-2-oxoacetyl)-N-(4-fluoro-3-methylphenyl)-5,6,7,8-tetrahydroindolizine-1-carboxamide] yielded a CC50 at 7 days in data set [1] of more than 30000 nM. In addition, in data set [2], the concentration for a half-maximal effect (EC50) was more than 1000 nM.

Compound `Cc1cc(NC(=O)c2c(C)c(C(=O)C(=O)NC(C)(C)C(N)=O)n(CCF)c2C)ccc1F` [Example 117, 5-(2-((1-amino-2-methyl-1-oxopropan-2-yl)amino)-2-oxoacetyl)-N-(4-fluoro-3-methylphenyl)-1-(2-fluoroethyl)-2,4-dimethyl-1H-pyrrole-3-carboxamide] yielded a 50% cytotoxic concentration (CC50) at 7 days in data set [1] of more than 30000 nM. The EC50 in data set [2] is 50 to 499 nM.

For the compound `CNC(=O)[C@@H](NC(=O)C(=O)c1c(C)c(C(=O)Nc2ccc(F)c(C)c2)c(C)n1C)[C@H](C)O` [Example 58, N-(4-fluoro-3-methylphenyl)-5-(2-(((2S,3S)-3-hydorxy-1-(methylamino)-1-oxobutan-2-yl)amino)-2-oxoacetyl)-1,2,4-trimethyl-1H-pyrrole-3-carboxamide], the cytotoxic concentration (CC50) at 7 days in data set [1] is more than 30000 nM. The EC50 in data set [2] was in the range of 500 to 1000 nM.

In data set [1], `Cc1cc(NC(=O)c2c(C)c(C(=O)C(=O)NCc3csc(N)n3)n(CCF)c2C)ccc1F` [Example 229, 5-(2-(((2-aminothiazol-4-yl)methyl)amino)-2-oxoacetyl)-N-(4-fluoro-3-methylphenyl)-1-(2-fluoroethyl)-2,4-dimethyl-1H-pyrrole-3-carboxamide] yielded a 50% cytotoxic concentration (CC50) at 7 days of more than 30000 nM. Further, the 50% effective concentration (EC50) in data set [2] was less than 50 nM.
